Experimental data as given in ChEMBL document CHEMBL5344402, “A multi-target directed ligands strategy for the treatment of Alzheimer's disease: Dimethyl fumarate plus Tranilast modified Dithiocarbate as AChE inhibitor and Nrf2 activator” (Eur J Med Chem, 2022).
Active and inactive are the calls of the source. The calls are words filed in the database; no cut-off is given here.

Tests used:
[1] = target: Acetylcholinesterase (Electrophorus electricus, UniProt O42275); assay: Inhibition of electric eel AChE using acetylthiocholine iodide as substrate preincubated for 5 mins followed by substrate addition by DTNB reagent based Ellman's method
[2] = target: Cholinesterase (Homo sapiens) (UniProt P06276); assay: Inhibition of human BuChE using butyrylthiocholine iodide as substrate at 10 uM preincubated for 5 mins followed by substrate addition by DTNB reagent based Ellman's method relative to control
[3] = target: Acetylcholinesterase (Homo sapiens, UniProt P22303); assay: Inhibition of human AChE using acetylthiocholine iodide as substrate preincubated for 5 mins followed by substrate addition by DTNB reagent based Ellman's method
[4] = in vitro; details: PAMPA
[5] = target: Cholinesterase (Equus caballus) (UniProt P81908); assay: Inhibition of equine serum BuChE using butyrylthiocholine iodide as substrate at 10 uM preincubated for 5 mins followed by substrate addition by DTNB reagent based Ellman's method relative to control; format: cell-free
[6] = target: T1, Nuclear factor erythroid 2-related factor 2 (Mus musculus) (UniProt Q60795); assay: Activation of NRF2 in mouse BV-2 cells assessed as increase in GPX4 protein expression incubated for 8 hrs by Western blotting analysis; format: cell-based; details: filed as activator
T1 sequence (whole entry): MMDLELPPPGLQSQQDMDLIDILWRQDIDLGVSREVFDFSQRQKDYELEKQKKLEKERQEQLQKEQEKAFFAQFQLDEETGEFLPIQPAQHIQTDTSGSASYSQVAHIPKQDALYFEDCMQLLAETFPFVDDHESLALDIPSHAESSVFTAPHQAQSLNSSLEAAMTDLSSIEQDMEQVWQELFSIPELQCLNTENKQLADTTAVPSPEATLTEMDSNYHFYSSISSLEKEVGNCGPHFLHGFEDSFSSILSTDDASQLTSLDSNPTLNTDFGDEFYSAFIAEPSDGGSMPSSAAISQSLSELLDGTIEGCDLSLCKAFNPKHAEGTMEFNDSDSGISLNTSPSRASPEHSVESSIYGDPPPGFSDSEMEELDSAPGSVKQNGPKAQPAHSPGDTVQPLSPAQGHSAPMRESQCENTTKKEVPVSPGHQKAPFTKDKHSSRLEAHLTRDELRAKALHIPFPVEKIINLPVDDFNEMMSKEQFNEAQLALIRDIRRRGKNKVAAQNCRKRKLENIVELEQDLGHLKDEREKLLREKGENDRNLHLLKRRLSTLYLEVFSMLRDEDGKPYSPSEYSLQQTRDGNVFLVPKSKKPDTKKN

[7] = Acute toxicity in Kunming mouse assessed as kidney pathological change at 625 to 2500 mg/kg,po administration for 14 days by Hematoxylin and eosin based staining analysis; format: organism-based; details: in vivo, 336 h, dose 625-2500 mg/kg, time 14 day
[8] = Acute toxicity in Kunming mouse assessed as liver pathological change at 625 to 2500 mg/kg,po administration for 14 days by Hematoxylin and eosin based staining analysis; format: organism-based; details: in vivo, 336 h, dose 625-2500 mg/kg, time 14 day
[9] = target: T1, Nuclear factor erythroid 2-related factor 2 (Mus musculus); assay: Activation of NRF2 in mouse BV-2 cells assessed as increase in GPX4 protein expression at 7 uM incubated for 3 to 9 hrs by Western blotting analysis; format: cell-based; details: filed as activator, time 3-9 hrs
[10] = test system: BV-2; assay: Anti-neuroinflammatory activity in mouse BV-2 cells assessed as reduction in LPS-induced NO production incubated for 6 hrs followed by LPS addition measured after 24 hrs by Griess reagent based assay; format: functional, cell-based; details: time 30.0 hrs
[11] = test system: Mus musculus; assay: Antialzheimer activity in scopolamine-induced cognitive impairment Kunming mouse model assessed as increase in latency at po administration by step-down assay; format: functional, organism-based
[12] = target: T1, Nuclear factor erythroid 2-related factor 2 (Mus musculus); assay: Activation of NRF2 in mouse BV-2 cells assessed as increase in NQO1 protein expression at 7 uM incubated for 3 to 9 hrs by Western blotting analysis; format: cell-based; details: filed as activator, time 3-9 hrs
[13] = test system: BV-2; assay: Activation of NRF2/ARE in mouse BV-2 cells assessed as upregulation of NRF2 expression at 7 uM by Western blotting analysis; format: cell-based; details: filed as activator, TDE = time-dependent effect
[14] = target: T1, Nuclear factor erythroid 2-related factor 2 (Mus musculus); assay: Activation of NRF2 in mouse BV-2 cells assessed as increase in NQO1 protein expression at 7 uM by Western blotting analysis; format: cell-based; details: filed as activator, TDE = time-dependent effect
[15] = Acute toxicity in Kunming mouse assessed as brain pathological change at 625 to 2500 mg/kg,po administration for 14 days by Hematoxylin and eosin based staining analysis; format: organism-based; details: in vivo, 336 h, dose 625-2500 mg/kg, time 14 day
[16] = test system: BV-2; assay: Activation of NRF2/ARE in mouse BV-2 cells assessed as upregulation of NRF2 expression incubated for 8 hrs by Western blotting analysis; format: cell-based; details: filed as activator
[17] = Drug degradation in serum (unknown origin) incubated for 12 hrs by HPLC analysis; format: ADME, cell-free; details: read-out: Drug degradation
[18] = target: T1, Nuclear factor erythroid 2-related factor 2 (Mus musculus); assay: Activation of NRF2 in mouse BV-2 cells assessed as increase in HO-1 protein expression incubated for 8 hrs by Western blotting analysis; format: cell-based; details: filed as activator
[19] = Acute toxicity in Kunming mouse assessed as lung pathological change at 625 to 2500 mg/kg,po administration for 14 days by Hematoxylin and eosin based staining analysis; format: organism-based; details: in vivo, 336 h, dose 625-2500 mg/kg, time 14 day
[20] = test system: BV-2; assay: Anti-neuroinflammatory activity in mouse BV-2 cells assessed as reduction in LPS-induced IL-6 production incubated for 6 hrs followed by LPS addition measured after 24 hrs by ELISA; format: functional, cell-based; details: time 30.0 hrs
[21] = Acute toxicity in Kunming mouse assessed as behavioral abnormalities at 625 to 2500 mg/kg,po administration for 4 hrs; format: organism-based; details: in vivo, dose 625-2500 mg/kg
[22] = test system: BV-2; assay: Anti-neuroinflammatory activity in mouse BV-2 cells assessed as reduction in LPS-induced COX-2 expression at 1 to 7 uM incubated for 6 hrs followed by LPS addition measured after 24 hrs by Western blotting analysis; format: functional, cell-based; details: dose 1-7 µM, time 30.0 hrs
[23] = Acute toxicity in Kunming mouse assessed as change in body weight at 625 to 2500 mg/kg,po administration for 14 days; format: organism-based; details: in vivo, 336 h, dose 625-2500 mg/kg, time 14 day
[24] = Acute toxicity in Kunming mouse assessed as heart pathological change at 625 to 2500 mg/kg,po administration for 14 days by Hematoxylin and eosin based staining analysis; format: organism-based; details: in vivo, 336 h, dose 625-2500 mg/kg, time 14 day
[25] = test system: Mus musculus; assay: Antialzheimer activity in scopolamine-induced cognitive impairment Kunming mouse model assessed as decrease in number of latency error at po administration by step-down assay; format: functional, organism-based
[26] = test system: BV-2; assay: Anti-neuroinflammatory activity in mouse BV-2 cells assessed as reduction in LPS-induced iNOS expression at 1 to 7 uM incubated for 6 hrs followed by LPS addition measured after 24 hrs by Western blotting analysis; format: functional, cell-based; details: dose 1-7 µM, time 30.0 hrs
[27] = test system: Mus musculus; assay: Antialzheimer activity in scopolamine-induced cognitive impairment Kunming mouse model assessed as increase in latency at 7.5 mg/kg,po administration by step-down assay; format: functional, organism-based
[28] = target: T1, Nuclear factor erythroid 2-related factor 2 (Mus musculus); assay: Activation of NRF2 in mouse BV-2 cells assessed as increase in GPX4 protein expression at 7 uM by Western blotting analysis; format: cell-based; details: filed as activator, TDE = time-dependent effect
[29] = test system: BV-2; assay: Anti-neuroinflammatory activity in mouse BV-2 cells assessed as reduction in LPS-induced TNF-alpha production incubated for 6 hrs followed by LPS addition measured after 24 hrs by ELISA; format: functional, cell-based; details: time 30.0 hrs
[30] = target: T1, Nuclear factor erythroid 2-related factor 2 (Mus musculus); assay: Activation of NRF2 in mouse BV-2 cells assessed as increase in HO-1 protein expression at 7 uM incubated for 3 to 9 hrs by Western blotting analysis; format: cell-based; details: filed as activator, time 3-9 hrs
[31] = test system: BV-2; assay: Cytoprotective activity against H2O2-induced toxicity in mouse BV-2 cells assessed as decrease in ROS production incubated for 6 hrs by DCFH-DA staining based inverted fluorescence microscopic analysis; format: functional, cell-based
[32] = target: T1, Nuclear factor erythroid 2-related factor 2 (Mus musculus); assay: Activation of NRF2 in mouse BV-2 cells assessed as increase in HO-1 protein expression at 7 uM by Western blotting analysis; format: cell-based; details: filed as activator, TDE = time-dependent effect
[33] = test system: BV-2; assay: Cytotoxicity against mouse BV-2 cells upto 10 uM incubated for 24 hrs by CCK-8 assay; format: toxicity, cell-based; details: bv-2, 24 h
[34] = test system: BV-2; assay: Activation of NRF2/ARE in mouse BV-2 cells assessed as upregulation of cytosolic NRF2 expression at 7 uM incubated for 10 hrs by Western blotting analysis; format: cell-based
[35] = test system: Mus musculus; assay: Antialzheimer activity in scopolamine-induced cognitive impairment Kunming mouse model assessed as increase in latency at 15 mg/kg,po administration by step-down assay; format: functional, organism-based
[36] = test system: BV-2; assay: Activation of NRF2/ARE in mouse BV-2 cells assessed as upregulation of nuclear NRF2 expression at 7 uM incubated for 4 hrs by Western blotting analysis; format: cell-based; details: filed as activator
[37] = test system: BV-2; assay: Cytoprotective activity against H2O2-induced toxicity in mouse BV-2 cells assessed as increase in cell viability incubated for 6 hrs by CCK-8 assay; format: functional, cell-based
[38] = Stability of the compound in serum (unknown origin) assessed as drug degradation incubated for 8 hrs by HPLC analysis; format: ADME, cell-free
[39] = target: T1, Nuclear factor erythroid 2-related factor 2 (Mus musculus); assay: Activation of NRF2 in mouse BV-2 cells assessed as increase in NQO1 protein expression incubated for 8 hrs by Western blotting analysis; format: cell-based; details: filed as activator

Acetylcholinesterase (Electrophorus electricus, UniProt O42275), sequence (O42275 whole entry): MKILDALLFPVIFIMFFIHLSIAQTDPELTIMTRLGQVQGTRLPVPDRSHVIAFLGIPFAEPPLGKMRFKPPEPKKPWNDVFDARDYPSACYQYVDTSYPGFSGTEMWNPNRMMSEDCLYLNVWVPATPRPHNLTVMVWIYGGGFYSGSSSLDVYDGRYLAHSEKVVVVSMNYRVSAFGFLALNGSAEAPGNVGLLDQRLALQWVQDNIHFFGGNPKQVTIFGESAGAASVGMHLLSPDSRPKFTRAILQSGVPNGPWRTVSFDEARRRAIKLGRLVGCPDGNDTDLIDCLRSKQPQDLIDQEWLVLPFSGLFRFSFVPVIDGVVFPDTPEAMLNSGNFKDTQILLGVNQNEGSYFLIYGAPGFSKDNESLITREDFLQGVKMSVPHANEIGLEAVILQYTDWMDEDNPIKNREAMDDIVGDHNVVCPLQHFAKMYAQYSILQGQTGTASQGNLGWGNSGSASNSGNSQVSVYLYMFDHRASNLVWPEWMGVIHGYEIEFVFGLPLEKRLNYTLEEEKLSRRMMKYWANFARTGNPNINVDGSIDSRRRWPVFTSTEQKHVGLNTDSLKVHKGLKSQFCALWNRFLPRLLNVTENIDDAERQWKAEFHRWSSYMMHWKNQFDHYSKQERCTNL
Acetylcholinesterase (Homo sapiens, UniProt P22303), sequence (P22303 whole entry): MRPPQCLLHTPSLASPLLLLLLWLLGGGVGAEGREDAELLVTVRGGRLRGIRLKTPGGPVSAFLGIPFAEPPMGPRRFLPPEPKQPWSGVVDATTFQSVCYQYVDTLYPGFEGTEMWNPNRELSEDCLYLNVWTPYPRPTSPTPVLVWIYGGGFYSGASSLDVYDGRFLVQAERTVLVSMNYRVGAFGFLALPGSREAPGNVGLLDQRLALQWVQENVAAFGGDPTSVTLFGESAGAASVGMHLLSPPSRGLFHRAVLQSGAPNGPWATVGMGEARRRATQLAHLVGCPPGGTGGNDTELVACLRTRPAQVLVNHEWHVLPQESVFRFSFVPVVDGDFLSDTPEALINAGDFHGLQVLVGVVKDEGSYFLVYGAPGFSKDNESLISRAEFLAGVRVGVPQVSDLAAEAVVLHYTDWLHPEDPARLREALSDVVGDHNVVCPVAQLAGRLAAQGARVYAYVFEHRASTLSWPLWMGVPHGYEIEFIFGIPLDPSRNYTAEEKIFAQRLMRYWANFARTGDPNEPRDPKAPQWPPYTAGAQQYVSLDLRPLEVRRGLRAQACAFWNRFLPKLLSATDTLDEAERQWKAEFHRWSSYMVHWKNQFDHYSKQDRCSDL
Cholinesterase (Equus caballus), sequence (P81908 whole entry): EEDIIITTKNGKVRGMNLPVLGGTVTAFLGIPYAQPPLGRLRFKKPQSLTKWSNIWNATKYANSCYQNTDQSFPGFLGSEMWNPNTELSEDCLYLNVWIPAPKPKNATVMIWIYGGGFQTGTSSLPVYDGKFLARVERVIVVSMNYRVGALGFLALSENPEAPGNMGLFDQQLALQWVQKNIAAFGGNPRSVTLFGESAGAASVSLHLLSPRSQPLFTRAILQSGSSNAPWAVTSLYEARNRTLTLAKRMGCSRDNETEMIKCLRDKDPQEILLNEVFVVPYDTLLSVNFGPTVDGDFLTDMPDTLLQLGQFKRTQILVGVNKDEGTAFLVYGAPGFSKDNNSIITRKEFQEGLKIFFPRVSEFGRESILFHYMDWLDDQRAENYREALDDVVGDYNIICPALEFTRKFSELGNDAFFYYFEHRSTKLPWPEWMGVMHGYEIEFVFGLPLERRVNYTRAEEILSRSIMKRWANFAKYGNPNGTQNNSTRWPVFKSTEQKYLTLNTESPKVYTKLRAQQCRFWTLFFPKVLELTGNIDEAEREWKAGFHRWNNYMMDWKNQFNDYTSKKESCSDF
Cholinesterase (Homo sapiens), sequence (P06276 whole entry): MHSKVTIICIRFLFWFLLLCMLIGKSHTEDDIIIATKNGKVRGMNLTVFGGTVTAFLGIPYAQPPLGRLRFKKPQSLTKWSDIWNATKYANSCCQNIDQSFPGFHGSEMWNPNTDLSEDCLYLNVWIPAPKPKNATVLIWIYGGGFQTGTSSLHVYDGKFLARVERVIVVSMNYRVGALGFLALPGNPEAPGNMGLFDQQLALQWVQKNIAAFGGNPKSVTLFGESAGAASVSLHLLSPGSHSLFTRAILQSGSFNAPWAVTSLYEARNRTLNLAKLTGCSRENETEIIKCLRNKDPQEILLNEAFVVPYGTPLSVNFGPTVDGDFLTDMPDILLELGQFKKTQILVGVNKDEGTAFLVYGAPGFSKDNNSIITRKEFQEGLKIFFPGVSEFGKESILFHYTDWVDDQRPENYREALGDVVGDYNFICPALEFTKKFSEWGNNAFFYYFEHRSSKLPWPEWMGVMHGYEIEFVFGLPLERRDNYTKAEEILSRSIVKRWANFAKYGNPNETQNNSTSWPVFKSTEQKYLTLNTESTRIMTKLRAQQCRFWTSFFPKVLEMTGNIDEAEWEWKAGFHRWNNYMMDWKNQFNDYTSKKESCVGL

COC(=O)/C=C/C(=O)Nc1cccc(OCCCCSC(=S)N2CCCCC2)c1
IC50 [1]: 0.37 µM
inhibition [2]: < 5%
IC50 [3]: 0.21 µM
Papp at 18 h [4]: 15.5 ×10⁻⁶ cm/s
inhibition [5]: < 5%

COC(=O)/C=C/C(=O)Nc1cccc(OCCCCSC(=S)N2C(C)CCCC2C)c1 (stereo unspecified)
IC50 [1]: 16.5 µM
inhibition [5]: 7.14%

COC(=O)/C=C/C(=O)Nc1cccc(OCCCCSC(=S)N2CCCCC2C)c1 (stereo unspecified)
IC50 [1]: 0.088 µM
Activity [6]: Dose-Dependent Effect
Activity [7]: Non-Toxic
inhibition [2]: < 5%
Activity [8]: Non-Toxic
IC50 [3]: 0.053 µM
Activity [9]: Active
Activity [10]: Dose-Dependent Effect
Activity [11]: Dose-Dependent Effect
Activity [12]: Active
Activity [13]: Tde
Activity [14]: Tde
Activity [15]: Non-Toxic
Activity [16]: Dose-Dependent Effect
metabolised at 12 h [17]: 50%
Activity [18]: Dose-Dependent Effect
Papp at 18 h [4]: 17.9 ×10⁻⁶ cm/s
Activity [19]: Non-Toxic
Activity [20]: Dose-Dependent Effect
Activity [21]: Non-Toxic
Activity [22]: Active
Activity [23]: Non-Toxic
Activity [24]: Non-Toxic
Activity [25]: Dose-Dependent Effect
Activity [26]: Active
Activity [27]: inactive
Activity [28]: Tde
Activity [29]: Dose-Dependent Effect
Activity [30]: Active
Activity [31]: Dose-Dependent Effect
Activity [32]: Tde
Activity [33]: Non-Toxic
Activity [34]: inactive
Activity [35]: Active
Activity [36]: Active
Activity [37]: Dose-Dependent Effect
Stability [38]: Unstable
Activity [39]: Dose-Dependent Effect
inhibition [5]: 7.5%

COC(=O)/C=C/C(=O)Nc1cccc(OCCCCSC(=S)N2CCC(O)CC2)c1
IC50 [1]: 76.5 µM
inhibition [5]: 10.1%

COC(=O)/C=C/C(=O)Nc1cccc(OCCCCSC(=S)N2CCOCC2)c1
IC50 [1]: 74.2 µM
inhibition [5]: 6.88%

COC(=O)/C=C/C(=O)Nc1cccc(OCCCCSC(=S)N2CCCC2)c1
IC50 [1]: 8.14 µM
inhibition [2]: < 5%
IC50 [3]: 6.04 µM
Papp at 18 h [4]: 10.4 ×10⁻⁶ cm/s
inhibition [5]: 8.8%

COC(=O)/C=C/C(=O)Nc1cccc(OCCCCSC(=S)N2CCC(N3CCCCC3)CC2)c1
IC50 [1]: 12.7 µM
inhibition [5]: 5.6%

COC(=O)/C=C/C(=O)Nc1cccc(OCCCCSC(=S)N(C)C)c1
IC50 [1]: 56.5 µM
inhibition [5]: 7.25%

COC(=O)/C=C/C(=O)Nc1cccc(OCCCCSC(=S)N2CCN(C)CC2)c1
IC50 [1]: 91.6 µM
inhibition [5]: > 5%
